Laboratory results reported in publication PMC9144829, “Histone Deacetylase Inhibitory Activity and Antiproliferative Potential of New [6]-Shogaol Derivatives” (Molecules, 2022).
Like-named read-outs stand apart in the source and are kept apart here. Values belong to the compound of their own block, whether it stands above or below them.

Tests used:
[1] = system: HDAC enzymes (HeLa nuclear extract, mixed-HDAC isoforms); test: Fluor-de-Lys HDAC activity assay kit, HeLa nuclear extract as source of HDAC enzymes; format: biochemical, human; settings: compounds at 100 µM
Description: The in vitro HDAC inhibitions of the obtained compounds were carried out with the assay kit containing mixed-HDAC isoforms. […] Therefore, the results were not fully related. However, compounds with good binding affinities should have the potential to be specific HDAC inhibitors for each isoform.
The semi-synthetic derivatives were evaluated for their ability to inhibit HDAC enzymes. Inhibition of HDAC activity in vitro was assessed using the Fluor-de-Lys HDAC activity assay kit (Biomol, Enzo Life Sciences International, Inc., Farmingdale, NY, USA). The HeLa nuclear extract provided with the kit was used as a source of HDAC enzymes for the in vitro study. TSA was used as the positive control. The HeLa nuclear extract, substrate, buffer and inhibitors were incubated. Deacetylation of the substrate was performed next by adding a developer to generate a fluorophore. The spectra Max Gemini XPS microplate spectrofluorometer (Molecular Devices, San Jose, CA, USA) was used to measure fluorescence signal with excitation at 360 nm and emission at 460 nm. A decrease in fluorescence signal indicated an inhibition of HDAC activity. Trichostatin A (TSA) was used as a positive control. All experiments were carried out in triplicate.

[2] = system: Vero cells; test: MTT assay, non-cancer Vero cells; format: cell-based; settings: Chlorocebus sabaeus, read-out: IC50 Values (Mean ± SD; n = 3)
Description: (§1) The MTT reduction assay was performed with non-cancer (Vero), human cervical cancer (HeLa), human colon cancer (HCT116), human breast adenocarcinoma cancer (MCF-7), and cholangiocarcinoma (H-69 […], KKU-100 and KKU-M213B) cell lines according to the previously described method. Briefly, cells were seeded in 96-well plates. The next day, cells were exposed to the selected compounds at various concentrations and incubated for 24, 48 and 72 h. After incubation, the culture medium was exchanged with 110 µL of MTT (0.5 mg/mL in PBS medium) and further incubated for 2 h. The amount of MTT formazan product was determined after dissolving in DMSO by measuring its absorbance with a microplate reader (Bio-Rad Laboratories, Hercules, CA, USA) at a test wavelength of 550 nm and a reference wavelength of 655 nm. The cell viability was expressed as a percentage of the viable cells of control culture conditions, and the IC50 values of each group were calculated.

[3] = system: human cervical cancer (HeLa) cells; test: MTT assay, HeLa cells; format: cell-based; settings: Homo sapiens, read-out: IC50 Values (Mean ± SD; n = 3), HeLa cells
Description: as §1

[4] = system: human colon cancer (HCT116) cells; test: MTT assay, HCT116 cells; format: cell-based; settings: Homo sapiens, HCT-116, read-out: IC50 Values (Mean ± SD; n = 3)
Description: as §1

[5] = system: human breast adenocarcinoma cancer (MCF-7) cells; test: MTT assay, MCF-7 cells; format: cell-based; settings: Homo sapiens, MCF7, read-out: IC50 Values (Mean ± SD; n = 3)
Description: as §1

[6] = system: H-69 cells; test: MTT assay, H-69 cells; format: cell-based; settings: Homo sapiens, NCI-H69, read-out: IC50 Values (Mean ± SD; n = 3)
Description: as §1

[7] = system: cholangiocarcinoma KKU-100 cells; test: MTT assay, KKU-100 cells; format: cell-based, human; settings: Homo sapiens, KKU100, read-out: IC50 Values (Mean ± SD; n = 3)
Description: as §1

[8] = system: cholangiocarcinoma KKU-M213B cells; test: MTT assay, KKU-M213B cells; format: cell-based, human; settings: Homo sapiens, read-out: IC50 Values (Mean ± SD; n = 3)
Description: as §1

- %HDAC Inhibition [1]: 74%
Compound: CCCCCC1CC(CCc2ccc(O)c(OC)c2)=NN1c1ccccc1 (centres unmarked) [Compound 5a, 2-methoxy-4-(2-(5-pentyl-1-phenyl-4,5-dihydro-1H-pyrazol-3-yl)ethyl)phenol]

- %HDAC Inhibition [1]: 64%
Compound: 10-(4-Hydroxy-3-methoxyphenyl)-6-((2-hydroxyphenyl)amino)decan-8-one [Compound 6b]

- %HDAC Inhibition [1]: 56%
Compound: CCCCCC1CC(CCc2ccc(O)c(OC)c2)=NN1c1ccccc1C (centres unmarked) [Compound 5b, 2-methoxy-4-(2-(5-pentyl-1-(o-tolyl)-4,5-dihydro-1H-pyrazol-3-yl)ethyl)phenol]

- %HDAC Inhibition [1]: 80%
- IC50 ([3]; 24 h): 49.3 ± 1.27 µM
- IC50 ([3]; 48 h): 33.4 ± 1.09 µM
- IC50 ([3]; 72 h): 29.3 ± 0.88 µM
- IC50 ([4]; 24 h): 20.2 ± 0.46 µM
- IC50 ([4]; 48 h): 18.4 ± 0.32 µM
- IC50 ([4]; 72 h): 17.2 ± 0.23 µM
- IC50 ([5]; 24 h): 46.4 ± 1.3 µM
- IC50 ([5]; 48 h): 39.4 ± 0.68 µM
- IC50 ([5]; 72 h): 27.1 ± 0.47 µM
Compound: CCCCC/C=C/C(CCc1ccc(O)c(OC)c1)=N\Nc1ccccn1 [Compound 4c, 2-Methoxy-4-((3Z,4E)-3-(2-(pyridin-2-yl)hydrazono)dec-4-en-1-yl)phenol]
- IC50 ([2]; 24 h): 69.5 ± 3.94 µM
- IC50 ([2]; 48 h): 49.31 ± 0.18 µM
- IC50 ([2]; 72 h): 45.2 ± 0.49 µM
- IC50 ([6]; 24 h): 40 ± 1.57 µM
- IC50 ([6]; 48 h): 30.6 ± 0.82 µM
- IC50 ([6]; 72 h): 28.7 ± 0.36 µM
- IC50 ([7]; 24 h): 36.8 ± 0.89 µM
- IC50 ([7]; 48 h): 29.7 ± 0.96 µM
- IC50 ([7]; 72 h): 19.2 ± 0.41 µM
- IC50 ([8]; 24 h): 39 ± 0.27 µM
- IC50 ([8]; 48 h): 28.98 ± 0.26 µM
- IC50 ([8]; 72 h): 25.9 ± 0.71 µM

- %HDAC Inhibition [1]: 52%
Compound: CCCCCC1CC(CCc2ccc(O)c(OC)c2)=NN1c1ccccc1OC (centres unmarked) [Compound 5c, 2-methoxy-4-(2-(1-(2-methoxyphenyl)-5-pentyl-4,5-dihydro-1H-pyrazol-3-yl)ethyl) phenol]

- %HDAC Inhibition [1]: 85%
- IC50 ([3]; 24 h): 26.8 ± 0.62 µM
- IC50 ([3]; 48 h): 11.6 ± 0.6 µM
- IC50 ([3]; 72 h): 8.09 ± 0.03 µM
- IC50 ([4]; 24 h): 42.7 ± 2.23 µM
- IC50 ([4]; 48 h): 10.2 ± 0.43 µM
- IC50 ([4]; 72 h): 9.65 ± 0.17 µM
- IC50 ([5]; 24 h): 27.9 ± 0.86 µM
- IC50 ([5]; 48 h): 13.8 ± 0.56 µM
- IC50 ([5]; 72 h): 11.6 ± 0.44 µM
Compound: CCCCCC1CC(CCc2ccc(O)c(OC)c2)=NN1c1ccc([N+](=O)[O-])cc1 (centres unmarked) [Compound 5j, 2-methoxy-4-(2-(1-(4-nitrophenyl)-5-pentyl-4,5-dihydro-1H-pyrazol-3-yl)ethyl)phe nol]
- IC50 ([2]; 24 h): 41.6 ± 2.99 µM
- IC50 ([2]; 48 h): 32.2 ± 1.31 µM
- IC50 ([2]; 72 h): 26.1 ± 0.47 µM
- IC50 ([6]; 24 h): 44.1 ± 0.89 µM
- IC50 ([6]; 48 h): 34.6 ± 0.41 µM
- IC50 ([6]; 72 h): 26.4 ± 0.43 µM
- IC50 ([7]; 24 h): 27.2 ± 0.59 µM
- IC50 ([7]; 48 h): 22.4 ± 0.65 µM
- IC50 ([7]; 72 h): 17.45 ± 0.14 µM
- IC50 ([8]; 24 h): 23.9 ± 0.85 µM
- IC50 ([8]; 48 h): 19.3 ± 0.9 µM
- IC50 ([8]; 72 h): 13.8 ± 0.16 µM

- %HDAC Inhibition [1]: 73%
Compound: CCCCC/C=C/C(CCc1ccc(O)c(OC)c1)=N\N [Compound 4a, 4-((3Z,4E)-3-Hydrazonodec-4-en-1-yl)-2-methoxyphenol]

- %HDAC Inhibition [1]: 77%
Compound: CCCCCC1CC(CCc2ccc(O)c(OC)c2)=NN1c1cccc([N+](=O)[O-])c1 (centres unmarked) [Compound 5i, 2-methoxy-4-(2-(1-(3-nitrophenyl)-5-pentyl-4,5-dihydro-1H-pyrazol-3-yl)ethyl)phe nol]

- %HDAC Inhibition [1]: 53%
Compound: 10-(4-Hydroxy-3-methoxyphenyl)-6-(phenylamino)decan-8-one [Compound 6c]

- %HDAC Inhibition [1]: 54%
Compound: 10-(4-Hydroxy-3-methoxyphenyl)-6-((2-mercaptophenyl)amino)decan-8-one [Compound 6a]

- %HDAC Inhibition [1]: 67%
Compound: CCCCCC1CC(CCc2ccc(O)c(OC)c2)=NN1c1ccc(OC)cc1 (centres unmarked) [Compound 5d, 2-methoxy-4-(2-(1-(4-methoxyphenyl)-5-pentyl-4,5-dihydro-1H-pyrazol-3-yl)ethyl) phenol]
